Results from article PMC6503470, “Antibacterial Oligomeric Polyphenols from the Green Alga Cladophora socialis” (The Journal of Organic Chemistry, 2019).
Values after ≈ are worked out from the molar mass of the structure shown. Like-named read-outs stand apart in the source and are kept apart here.

Key:
[1] = test system: wild type Candida albicans (WTCA, ATCC 32354); test: Antifungal MIC assay, wild type C. albicans; assay type: cell-based; conditions: ATCC32354, MIC90, values expressed as 95% confidence interval, read-out: Minimal inhibitory concentration, WTCA
[2] = test system: P. falciparum strain Dd2L; test: Parasite proliferation assay, asexual blood-stage P. falciparum, SYBR Green; assay type: cell-based; conditions: Plasmodium falciparum
Experimental: Antimalarial activity was assessed using a standard parasite proliferation assay with asexual blood-stage P. falciparum and SYBR Green detection.[22] Screening media (complete media supplemented with 0.05% Albumax II but without human serum) and fresh O^+ erythrocytes (TSRI Normal Blood Donation) were used for cultures of P. falciparum strain Dd2L (gift from Dr. David Fidock, Colombia University). A Labcyte ECHO acoustic liquid handler transferred compounds into assay plates. The plates were inoculated (Multi-Flo; BioTek, VT) with parasitized erythrocytes and fresh erythrocytes prepared in screening media, resulting in a final parasitemia of 0.3% and hematocrit of 2.5%. A chamber with a low oxygen gas mixture at 37 °C was used to culture the assay plates for 72 h with daily gas exchanges. SYBR Green lysis buffer was added to the wells after incubation using a Multi-Flo liquid dispenser, and plates were incubated at room temperature for an additional 24 h to achieve optimal development of the fluorescence signal which was read by an Envision Multimode Reader (PerkinElmer, MA). The positive controls used were atovaquone (EC50 = 0.0006 μM) and artemisinin (EC50 = 0.03 μM).

[3] = test system: Escherichia coli (EC, ATCC 25922); test: Antibacterial MIC assay, E. coli; assay type: cell-based
[4] = test system: vancomycin-resistant Enterococcus faecium (VREF, ATCC 700221); test: Antibacterial MIC assay, VREF; assay type: cell-based; conditions: ATCC700221, MIC90, values expressed as 95% confidence interval, read-out: Minimal inhibitory concentration, VREF
[5] = test system: methicillin-resistant Staphylococcus aureus (MRSA, ATCC 33591); test: Antibacterial MIC assay, MRSA; assay type: cell-based; conditions: for MIC: Staphylococcus aureus, read-out: Minimal inhibitory concentration, MRSA
[6] = test system: amphotericin B-resistant C. albicans (ARCA, ATCC 90873); test: Antifungal MIC assay, amphotericin B-resistant C. albicans; assay type: cell-based; conditions: Candida albicans, ATCC90873; MIC90; values expressed as 95% confidence interval; read-out: Minimal inhibitory concentration, ARCA
[7] = Antibacterial MIC assay, Gram-negative panel; assay type: cell-based, Gram-negative bacteria (panel); conditions: one value for the whole panel of Gram-negative strains; read-out: Minimal inhibitory concentration, Gram–
[8] = test system: human kidney cells (HEK293T); test: Cytotoxicity, human kidney cells; assay type: cell-based; conditions: at the compound's P. falciparum EC50; cell line not restated, HEK293T assumed
[9] = Cytotoxicity, human kidney cells; assay type: cell-based; conditions: human, HEK293T cells (human kidney cells); read-out: half maximal cytotoxicity concentration (CC50), HEK293T
[10] = test system: MDR Escherichia coli (MDREC, ATCC BAA-1743); test: microbe, parasite or virus in culture; conditions: ATCCBAA1743, read-out: MIC, MDREC
[11] = positive controls, read-out: EC50, P. falciparum
[12] = MIC90, at least 90% inhibition of growth, values expressed as 95% confidence interval
[13] = asexual blood stages, 72 h, 95% confidence interval, read-out: Half-maximal effective concentration, P. falciparum
[14] = ATCC25922, Gram– column, footnote e: tested only against E. coli, read-out: Minimal inhibitory concentration, Gram– (tested only against E. coli)

| MIC [1] | MIC [4] | MIC [5, 12] | MIC [6] | MIC [7] | EC50 [2, 13] | Compound | further results |
| --- | --- | --- | --- | --- | --- | --- | --- |
| > 50 µg/mL | > 50 µg/mL | 13 to 49 µg/mL (≈ 28.2 to 106 µM) | > 50 µg/mL | > 50 µg/mL | 1.9 ± 0.2 µg/mL | O=c1oc2c(O)cc(Oc3ccc(-c4ccc(O)c(O)c4)cc3O)cc2c2c(O)c(O)ccc12 [compound 5, 4,9,10-trihydroxy-2-[(3,3′,4′-trihydroxy-(1,1′-biphenyl)-4-yl)oxy]benzo[c]chromen-6-one] | Minimal inhibitory concentration, MRSA [5, 12]: 13 ± 2 µg/mL (≈ 28.2 µM); toxicity at the P. falciparum EC50 values [8]: no toxicity; CC50 [9]: 4.5 µg/mL (≈ 9.77 µM) |
| 46 ± 13 µg/mL (≈ 47.2 µM) | > 50 µg/mL | 1.4 µg/mL (≈ 1.44 µM) | 46 ± 9 µg/mL (≈ 47.2 µM) | > 50 µg/mL | > 2 µg/mL | Oc1ccc(Oc2ccc(Oc3ccc(Oc4ccc(Oc5ccc(Oc6ccc(Oc7ccc(Oc8ccc(-c9ccc(O)c(O)c9)cc8O)cc7O)cc6O)cc5O)cc4O)cc3O)cc2O)cc1O [compound 6, α-hydro-ω-[3,4-dihydroxyphenyl]octa[oxy(2-hydroxyphen-4-yl)]] | Minimal inhibitory concentration, MRSA [5, 12]: 1.4 ± 0.3 µg/mL (≈ 1.44 µM) |
| > 50 µg/mL | > 50 µg/mL |  | > 50 µg/mL | > 50 µg/mL | > 2 µg/mL | Oc1ccc(Oc2ccc(Oc3ccc(Oc4ccc(Oc5ccc(Oc6ccc(Oc7ccc(Oc8ccc(Oc9ccc(-c%10ccc(O)c(O)c%10)cc9O)cc8O)cc7O)cc6O)cc5O)cc4O)cc3O)cc2O)cc1O [compound 7, α-hydro-ω-[3,4-dihydroxyphenyl]nona[oxy(2-hydroxyphen-4-yl)]] |  |
| > 50 µg/mL | > 50 µg/mL | 13 to 49 µg/mL (≈ 10.7 to 40.3 µM) | > 50 µg/mL |  | > 2 µg/mL | O=c1oc2c(O)cc(Oc3ccc(Oc4ccc(Oc5ccc(Oc6ccc(Oc7ccc(Oc8ccc(Oc9ccc(Oc%10ccc(-c%11ccc(O)c(O)c%11)cc%10O)cc9O)cc8O)cc7O)cc6O)cc5O)cc4O)cc3O)cc2c2cc(O)c(O)cc12 [compound 8, α-[(4,8,9-trihydroxy-2-benzo[c]chromen-6-on-2-yl)oxy]-ω-[3,4-dihydroxyphenyl]octa[oxy(2-hydroxyphen-4-yl)]] | MIC [3, 14]: > 50 µg/mL; Minimal inhibitory concentration, MRSA [5, 12]: 25 ± 3 µg/mL (≈ 20.5 µM) |
| > 50 µg/mL | > 50 µg/mL | 13 to 49 µg/mL (≈ 11.7 to 44.2 µM) | > 50 µg/mL | > 50 µg/mL | > 2 µg/mL | O=c1oc2c(O)cc(Oc3ccc(Oc4ccc(Oc5ccc(Oc6ccc(Oc7ccc(Oc8ccc(Oc9ccc(-c%10ccc(O)c(O)c%10)cc9O)cc8O)cc7O)cc6O)cc5O)cc4O)cc3O)cc2c2cc(O)c(O)cc12 [compound 9, α-[(4,8,9-trihydroxy-2-benzo[c]chromen-6-on-2-yl)oxy]-ω-[3,4-dihydroxyphenyl]hepta[oxy(2-hydroxyphen-4-yl)]] | Minimal inhibitory concentration, MRSA [5, 12]: 14 ± 3 µg/mL (≈ 12.6 µM) |
| > 50 µg/mL | > 50 µg/mL |  | > 50 µg/mL | > 50 µg/mL | > 2 µg/mL | O=c1oc2c(O)cc(Oc3ccc(Oc4ccc(Oc5ccc(Oc6ccc(Oc7ccc(Oc8ccc(Oc9ccc(Oc%10ccc(Oc%11ccc(-c%12ccc(O)c(O)c%12)cc%11O)cc%10O)cc9O)cc8O)cc7O)cc6O)cc5O)cc4O)cc3O)cc2c2cc(O)c(O)cc12 [compound 10, α-[(4,8,9-trihydroxy-2-benzo[c]chromen-6-on-2-yl)oxy]-ω-[3,4-dihydroxyphenyl]nona[oxy(2-hydroxyphen-4-yl)]] |  |
| > 50 µg/mL | > 50 µg/mL |  | > 50 µg/mL | > 50 µg/mL |  | O=c1oc2c(O)cc(Oc3ccc(Oc4ccc(Oc5ccc(Oc6ccc(Oc7ccc(Oc8ccc(Oc9ccc(Oc%10ccc(Oc%11ccc(Oc%12ccc(-c%13ccc(O)c(O)c%13)cc%12O)cc%11O)cc%10O)cc9O)cc8O)cc7O)cc6O)cc5O)cc4O)cc3O)cc2c2cc(O)c(O)cc12 [compound 11, α-[(4,8,9-trihydroxy-2-benzo[c]chromen-6-on-2-yl)oxy]-ω-[3,4-dihydroxyphenyl]deca[oxy(2-hydroxyphen-4-yl)]] |  |
| > 50 µg/mL | > 50 µg/mL |  | > 50 µg/mL |  |  | O=c1oc2c(O)cc(Oc3ccc(Oc4ccc(Oc5ccc(Oc6ccc(Oc7ccc(Oc8ccc(Oc9ccc(Oc%10ccc(Oc%11ccc(Oc%12ccc(Oc%13ccc(-c%14ccc(O)c(O)c%14)cc%13O)cc%12O)cc%11O)cc%10O)cc9O)cc8O)cc7O)cc6O)cc5O)cc4O)cc3O)cc2c2cc(O)c(O)cc12 [compound 12, α-[(4,8,9-trihydroxy-2-benzo[c]chromen-6-on-2-yl)oxy]-ω-[3,4-dihydroxyphenyl]undeca[oxy(2-hydroxyphen-4-yl)]] | MIC [3, 14]: > 50 µg/mL |

The next lines start with the compound.

| Compound | MIC [1] | MIC [4] | MIC [5, 12] | MIC [6] | MIC [7] | EC50 [2, 13] | further results |
| --- | --- | --- | --- | --- | --- | --- | --- |
| C[C@@H]1[C@H](O)[C@@H](C)/C=C/C=C/C=C/C=C/C=C/C=C/C=C/[C@H](O[C@@H]2O[C@H](C)[C@@H](O)[C@H](N)[C@@H]2O)C[C@@H]2O[C@](O)(C[C@@H](O)C[C@@H](O)[C@H](O)CC[C@@H](O)C[C@@H](O)CC(=O)O[C@H]1C)C[C@H](O)[C@H]2C(=O)O [amphotericin B, reference compound] | 16 ± 1 µg/mL (≈ 17.3 µM) |  |  |  |  |  |  |
| C[C@@H]1CC[C@H]2[C@@H](C)C(=O)O[C@@H]3O[C@@]4(C)CC[C@@H]1[C@]32OO4 [artemisinin, reference compound] |  |  |  |  |  |  | EC50 [2, 11]: 30 nM |
| O=C1C(O)=C([C@H]2CC[C@H](c3ccc(Cl)cc3)CC2)C(=O)c2ccccc21 [atovaquone, reference compound] |  |  |  |  |  |  | EC50 [2, 11]: 0.6 nM |
| O=C(N[C@H](CO)[C@H](O)c1ccc([N+](=O)[O-])cc1)C(Cl)Cl [chloramphenicol, reference compound] |  | < 8 µg/mL |  |  |  |  | MIC ([3]; ATCC25922, positive control, read-out: MIC, EC): < 8 µg/mL |
| Oc1ccc(-c2ccc(O)c(O)c2)cc1O [compound 3, 3,4,3′,4′-tetrahydroxy-1,1′-biphenyl] | > 50 µg/mL | > 50 µg/mL | > 50 µg/mL | > 50 µg/mL | > 50 µg/mL |  |  |
| O=c1oc2cc(O)c(O)cc2c2cc(O)c(O)cc12 [compound 4, 2,3,8,9-tetrahydroxybenzo[c]chromen-6-one] | > 50 µg/mL | > 50 µg/mL | > 50 µg/mL | > 50 µg/mL | > 50 µg/mL | 0.7 ± 0.1 µg/mL | toxicity at the P. falciparum EC50 values [8]: no toxicity; CC50 [9]: 9.4 µg/mL (≈ 36.1 µM) |
| O=C1CN(/N=C/c2ccc([N+](=O)[O-])o2)C(=O)N1 [nitrofurantoin] |  |  |  |  |  |  | MIC [10]: 14 ± 1 µg/mL (≈ 58.8 µM) |
| CN[C@H](CC(C)C)C(=O)N[C@H]1C(=O)N[C@@H](CC(N)=O)C(=O)N[C@H]2C(=O)N[C@H]3C(=O)N[C@H](C(=O)N[C@H](C(=O)O)c4cc(O)cc(O)c4-c4cc3ccc4O)[C@H](O)c3ccc(c(Cl)c3)Oc3cc2cc(c3O[C@@H]2O[C@H](CO)[C@@H](O)[C@H](O)[C@H]2O[C@H]2C[C@](C)(N)[C@H](O)[C@H](C)O2)Oc2ccc(cc2Cl)[C@H]1O [vancomycin, reference compound] |  |  |  |  |  |  | MIC [5]: < 4 µg/mL |
